Like-named read-outs stand apart in the source and are kept apart here. One block for each compound: values may come before it. Where a SMILES comes first, the peptide text is derived from it. Where no end group is shown, it is not given here. [ ]: non-standard residue; d: D form. Nle = CCCC[C@H](N)C(=O)O; Aib = CC(C)(N)C(=O)O
Tests used:
hGLP-1R = target: T1, hGLP-1R (Homo sapiens, UniProt P43220); test: hGLP-1R-mediated cAMP induction assay in CHO cell line; format: cell-based;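 further: CHO cells expressing human GLP-1R, treated 30 min at 37 °C, intracellular cAMP measured by competitive fluorescent immunoassay and converted via a cAMP standard curve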
T1 construct: expressed in transfected cells; host or cells: CHO

hGIPR = target: T2, hGIPR (Homo sapiens, UniProt P48546); test: hGIPR-mediated cAMP induction assay in CHO cell line; format: cell-based; details: for GIP Receptor Relative Potency: against native GIP
T2 construct: expressed in transfected cells; host or cells: CHO
T2 sequence (P48546 22-466): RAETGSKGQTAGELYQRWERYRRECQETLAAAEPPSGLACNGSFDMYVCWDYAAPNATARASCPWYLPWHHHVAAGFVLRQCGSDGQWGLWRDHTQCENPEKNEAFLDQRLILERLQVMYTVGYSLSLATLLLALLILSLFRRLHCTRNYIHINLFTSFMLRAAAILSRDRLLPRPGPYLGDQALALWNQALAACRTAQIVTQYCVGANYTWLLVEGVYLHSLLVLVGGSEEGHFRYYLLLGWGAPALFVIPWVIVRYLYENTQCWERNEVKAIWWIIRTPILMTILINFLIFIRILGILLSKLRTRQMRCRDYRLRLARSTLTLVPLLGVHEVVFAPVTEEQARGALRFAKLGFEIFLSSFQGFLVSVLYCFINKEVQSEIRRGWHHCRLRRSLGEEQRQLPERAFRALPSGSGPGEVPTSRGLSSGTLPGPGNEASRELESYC

T1 sequence (P43220 24-463): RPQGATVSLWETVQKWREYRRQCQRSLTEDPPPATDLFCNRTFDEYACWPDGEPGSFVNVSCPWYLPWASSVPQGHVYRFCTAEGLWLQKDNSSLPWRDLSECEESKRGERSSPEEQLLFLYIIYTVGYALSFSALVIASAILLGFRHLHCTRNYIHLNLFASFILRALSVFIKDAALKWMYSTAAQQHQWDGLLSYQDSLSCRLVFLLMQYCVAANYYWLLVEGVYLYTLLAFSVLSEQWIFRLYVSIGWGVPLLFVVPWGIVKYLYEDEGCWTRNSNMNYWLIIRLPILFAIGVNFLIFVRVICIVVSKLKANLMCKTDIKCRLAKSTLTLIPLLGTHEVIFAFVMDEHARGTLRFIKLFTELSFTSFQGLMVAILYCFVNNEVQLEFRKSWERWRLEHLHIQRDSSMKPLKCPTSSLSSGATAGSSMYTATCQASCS

Compound: CCCC[C@H](NC(=O)[C@H](C)NC(=O)[C@@H](NC(=O)[C@H](CO)NC(=O)[C@H](Cc1ccc(O)cc1)NC(=O)[C@H](CC(=O)O)NC(=O)[C@H](CO)NC(=O)[C@@H](NC(=O)[C@H](Cc1ccccc1)NC(=O)[C@@H](NC(=O)CNC(=O)[C@H](CCC(=O)O)NC(=O)C(C)(C)NC(=O)[C@@H](N)Cc1ccc(O)cc1)[C@@H](C)O)[C@@H](C)CC)[C@@H](C)CC)C(=O)N[C@@H](CCC(=O)O)C(=O)N[C@@H](CCCCN)C(=O)N[C@H](C(=O)N[C@@H](Cc1c[nH]cn1)C(=O)N[C@@H](CCC(N)=O)C(=O)N[C@@H](CCC(N)=O)C(=O)N[C@@H](CC(=O)O)C(=O)N[C@@H](Cc1ccccc1)C(=O)N[C@H](C(=O)N[C@@H](CC(N)=O)C(=O)N[C@@H](Cc1c[nH]c2ccccc12)C(=O)N[C@@H](CC(C)C)C(=O)N[C@@H](CC(C)C)C(=O)N[C@@H](C)C(=O)N[C@@H](CCC(N)=O)C(N)=O)C(C)C)[C@@H](C)CC [Compound 010] (H-Y[Aib]EGTFISDYSIA[Nle]EKIHQQDFVNWLLAQ-NH2; N-terminus assumed)
- EC50 (hGLP-1R): > 2000 nM

- EC50 (hGIPR; Table 3, CHO hGIPR cells): 0.57 nM
- GIP Receptor Relative Potency (hGIPR; Table 3): 36.8
Compound: CC[C@H](C)[C@H](NC(=O)[C@H](Cc1ccccc1)NC(=O)[C@H](CCC(=O)O)NC(=O)[C@H](CCCCN)NC(=O)[C@@H](NC(=O)[C@H](C)NC(=O)[C@H](CCC(=O)O)NC(=O)[C@H](CCCCN)NC(=O)[C@H](CCC(=O)O)NC(=O)[C@H](CCSC)NC(=O)[C@H](Cc1ccc(O)cc1)NC(=O)[C@@H](NC(=O)[C@H](CO)NC(=O)[C@H](Cc1ccc(O)cc1)NC(=O)[C@H](CC(=O)O)NC(=O)[C@H](CO)NC(=O)[C@@H](NC(=O)[C@H](Cc1ccccc1)NC(=O)[C@@H](NC(=O)CNC(=O)[C@H](CCC(=O)O)NC(=O)C(C)(C)NC(=O)[C@@H](N)Cc1ccc(O)cc1)[C@@H](C)O)[C@@H](C)O)[C@@H](C)CC)C(C)C)C(=O)N[C@@H](C)C(=O)N[C@@H](Cc1c[nH]c2ccccc12)C(=O)N[C@@H](CC(C)C)C(=O)N[C@H](C(=O)N[C@@H](CCCCN)C(=O)NCC(N)=O)C(C)C [Compound 057] (H-Y[Aib]EGTFTSDYSIYMEKEAVKEFIAWLVKG-NH2; N-terminus assumed)

Compound: Tyr-Ala-Glu-Gly-Thr-Phe-Ile-Ser-Asp-Tyr-Ser-Ile-Ala-Met-Asp-Lys-Ile-His-Gln-Gln-Asp-Phe-Val-Asn-Trp-Leu-Leu-Ala-Gln(NH2) (YAEGTFISDYSIAMDKIHQQDFVNWLLAQ-NH2; listed as Homo sapiens) [GIP (1-29), initial scaffold, reference compound]
- GIPR activation in vitro, in words (hGIPR; cAMP induction, liraglutide up to 1 μM): equivalent GIPR activation in vitro to that of the full-length GIP (1-42)

- EC50 (hGIPR; Table 3, CHO hGIPR cells): 0.5 nM
- GIP Receptor Relative Potency (hGIPR; Table 3): 34
Compound: CC[C@H](C)[C@H](NC(=O)[C@H](Cc1ccccc1)NC(=O)[C@H](CCC(=O)O)NC(=O)[C@H](CCC(=O)O)NC(=O)[C@@H](NC(=O)[C@H](C)NC(=O)[C@H](CCC(=O)O)NC(=O)[C@H](CCCCN)NC(=O)[C@H](CCC(=O)O)NC(=O)[C@H](CCSC)NC(=O)[C@H](Cc1ccc(O)cc1)NC(=O)[C@@H](NC(=O)[C@H](CO)NC(=O)[C@H](Cc1ccc(O)cc1)NC(=O)[C@H](CC(=O)O)NC(=O)[C@H](CO)NC(=O)[C@@H](NC(=O)[C@H](Cc1ccccc1)NC(=O)[C@@H](NC(=O)CNC(=O)[C@H](CCC(=O)O)NC(=O)C(C)(C)NC(=O)[C@@H](N)Cc1ccc(O)cc1)[C@@H](C)O)[C@@H](C)O)[C@@H](C)CC)C(C)C)C(=O)N[C@@H](C)C(=O)N[C@@H](Cc1c[nH]c2ccccc12)C(=O)N[C@@H](CC(C)C)C(=O)N[C@H](C(=O)N[C@@H](CCCCN)C(=O)NCC(N)=O)C(C)C [Compound 053-1] (H-Y[Aib]EGTFTSDYSIYMEKEAVEEFIAWLVKG-NH2; N-terminus assumed)

Compound: Tyr-Aib-Glu-Gly-Thr-Phe-Thr-Ser-Asp-Tyr-Ser-Ile-Tyr-Nle-Glu-Lys-Glu-Ala-Gln-Gln-Asp-Phe-Val-Asn-Trp-Leu-Leu-Ala-Gln(NH2) (Y[Aib]EGTFTSDYSIY[Nle]EKEAQQDFVNWLLAQ-NH2) [Analog 020]
- GLP-1R activation (GLP-1 activity) against native GLP-1 (hGLP-1R): less than 1%

Compound: CCCC[C@H](NC(=O)[C@H](Cc1ccc(O)cc1)NC(=O)[C@@H](NC(=O)[C@H](CO)NC(=O)[C@H](Cc1ccc(O)cc1)NC(=O)[C@H](CC(=O)O)NC(=O)[C@H](CO)NC(=O)[C@@H](NC(=O)[C@H](Cc1ccccc1)NC(=O)[C@@H](NC(=O)CNC(=O)[C@H](CCC(=O)O)NC(=O)C(C)(C)NC(=O)[C@@H](N)Cc1ccc(O)cc1)[C@@H](C)O)[C@@H](C)O)[C@@H](C)CC)C(=O)N[C@@H](CCC(=O)O)C(=O)N[C@@H](CCCCN)C(=O)N[C@H](C(=O)N[C@@H](Cc1c[nH]cn1)C(=O)N[C@@H](CCC(N)=O)C(=O)N[C@@H](CCC(N)=O)C(=O)N[C@@H](CC(=O)O)C(=O)N[C@@H](Cc1ccccc1)C(=O)N[C@H](C(=O)N[C@@H](CC(N)=O)C(=O)N[C@@H](Cc1c[nH]c2ccccc12)C(=O)N[C@@H](CC(C)C)C(=O)N[C@H](C(=O)N[C@@H](CCCNC(=N)N)C(=O)N[C@@H](CCC(N)=O)C(N)=O)C(C)C)C(C)C)[C@@H](C)CC [Compound 021] (H-Y[Aib]EGTFTSDYSIY[Nle]EKIHQQDFVNWLVRQ-NH2; N-terminus assumed)
- GIP Receptor Relative Potency (hGIPR; Table 3): 21.7

Compound: Tyr-Aib-Glu-Gly-Thr-Phe-Thr-Ser-Asp-Tyr-Ser-Ile-Tyr-Met-Glu-Lys-Ile-His-Gln-Gln-Asp-Phe-Val-Asn-Trp-Leu-Leu-Ala-Gln(NH2) (Y[Aib]EGTFTSDYSIYMEKIHQQDFVNWLLAQ-NH2) [Analog 003]
- GLP-1R activation (GLP-1 activity) against native GLP-1 (hGLP-1R): ~0.2%

Compound: CCCC[C@H](NC(=O)[C@H](Cc1ccc(O)cc1)NC(=O)[C@@H](NC(=O)[C@H](CO)NC(=O)[C@H](Cc1ccc(O)cc1)NC(=O)[C@H](CC(=O)O)NC(=O)[C@H](CO)NC(=O)[C@@H](NC(=O)[C@H](Cc1ccccc1)NC(=O)[C@@H](NC(=O)CNC(=O)[C@H](CCC(=O)O)NC(=O)C(C)(C)NC(=O)[C@@H](N)Cc1ccc(O)cc1)[C@@H](C)O)[C@@H](C)O)[C@@H](C)CC)C(=O)N[C@@H](CCC(=O)O)C(=O)N[C@@H](CCCCN)C(=O)N[C@@H](CCC(=O)O)C(=O)N[C@@H](C)C(=O)N[C@@H](CCC(N)=O)C(=O)N[C@@H](CCC(N)=O)C(=O)N[C@@H](CC(=O)O)C(=O)N[C@@H](Cc1ccccc1)C(=O)N[C@H](C(=O)N[C@@H](CC(N)=O)C(=O)N[C@@H](Cc1c[nH]c2ccccc12)C(=O)N[C@@H](CC(C)C)C(=O)N[C@@H](CC(C)C)C(=O)N[C@@H](C)C(=O)N[C@@H](CCC(N)=O)C(N)=O)C(C)C [Compound 020] (H-Y[Aib]EGTFTSDYSIY[Nle]EKEAQQDFVNWLLAQ-NH2; N-terminus assumed)
- EC50 (hGIPR): 0.27 nM
- GIP Receptor Relative Potency (hGIPR; Table 3): 51.8

Compound: CC[C@H](C)[C@H](NC(=O)[C@H](CO)NC(=O)[C@H](Cc1ccc(O)cc1)NC(=O)[C@H](CC(=O)O)NC(=O)[C@H](CO)NC(=O)[C@@H](NC(=O)[C@H](Cc1ccccc1)NC(=O)[C@@H](NC(=O)CNC(=O)[C@H](CCC(=O)O)NC(=O)C(C)(C)NC(=O)[C@@H](N)Cc1ccc(O)cc1)[C@@H](C)O)[C@@H](C)O)C(=O)N[C@@H](Cc1ccc(O)cc1)C(=O)N[C@@H](CCSC)C(=O)N[C@@H](CCC(=O)O)C(=O)N[C@@H](CCCCN)C(=O)N[C@H](C(=O)N[C@@H](Cc1c[nH]cn1)C(=O)N[C@@H](CCC(N)=O)C(=O)N[C@@H](CCC(N)=O)C(=O)N[C@@H](CC(=O)O)C(=O)N[C@@H](Cc1ccccc1)C(=O)N[C@H](C(=O)N[C@@H](CC(N)=O)C(=O)N[C@@H](Cc1c[nH]c2ccccc12)C(=O)N[C@@H](CC(C)C)C(=O)N[C@@H](CC(C)C)C(=O)N[C@@H](C)C(=O)N[C@@H](CCC(N)=O)C(N)=O)C(C)C)[C@@H](C)CC [Compound 003] (H-Y[Aib]EGTFTSDYSIYMEKIHQQDFVNWLLAQ-NH2; N-terminus assumed)
- GIP Receptor Relative Potency (hGIPR; Table 3): 77.7

Reference: patent US9453062B2, “Glucose dependent insulinotropic polypeptide analogs, pharmaceutical compositions and use thereof” (Beijing Hanmi Pharmaceutical Co., Ltd., priority 2011, dated 2016)
